Experimental data published in patent US20240208963A1, “CRYSTALLINE MELANOCORTIN SUBTYPE-2 RECEPTOR (MC2R) ANTAGONIST” (Crinetics Pharmaceuticals, Inc., priority 2022, published 2024).
Where two headings read alike, the source gives them in different places.

Key:
[1] = Salt screening XRPD stages: drying and overnight humidity exposure; details: >95% relative humidity overnight
Experimental: XRPD analysis is typically done in three stages: 1) Wet: XRPD of the wet cake is done for all samples whenever solids appropriate for sampling were observed. 2) Dry: Unique solids are then left on XRPD plates and dried under vacuum at 50° C. for at least 3 h. XRPD of unique dry solids are then collected. 3) Humid: Solids are then exposed to >95% relative humidity overnight and XRPD on resulting solids is collected. The humid environment is generated by placing a beaker of saturated potassium sulfate in water in a sealed container. This procedure is not carried out for any amorphous solids obtained. All XRPD patterns are compared to counter ion XRPD patterns and known free molecule patterns.
A qualitive humidity exposure test was performed by exposing approximately 10 mg of the maleate to 80% RH overnight.

[2] = Dynamic vapor sorption (DVS); type: physicochemical
Experimental: DVS was performed using a DVS Intrinsic 1. The sample (20-25 mg) was loaded into a sample pan, suspended from a microbalance and exposed to a humidified stream of nitrogen gas. The sample was held for a minimum of 5 min at each level and only progressed to the next humidity level if there was <0.002% change in weight between measurements (interval: 60 s) or 240 min had elapsed. The following program was used: • 1. Equilibration at 50% RH • 2. 50% to 2%. (50%, 40%, 30%, 20%, 10%, and 2%) • 3. 2% to 95% (2%, 10%, 20%, 30%, 40%, 50%, 60%, 70%, 80%, 90%, and 95%) • 4. 95% to 2% (95%, 80%, 70%, 60%, 50%, 40%, 30%, 20%, 10%, and 2%) • 5. 2% to 50% (2%, 10%, 20%, 30%, 40%, and 50%)

[3] = Solubility of solid state forms in solvents (gravimetric or solvent addition); type: physicochemical; details: for solubility: thermodynamic from solid, read-out: Solubility
Experimental: The solubility of certain solid state forms of Compound I was determined in various solvents by either gravimetric solubility or solvent addition.
About 25 mg of compound was weighed into vials. Approximately 5 vol. (0.125 mL) of solvent was added to the solids and the mixtures stirred at the designated temperature (RT or 50° C.). Solutions were noted and an additional 0.125 mL of solvent was added to the slurries. […] If a thicker slurry was noted, 0.25 mL of solvent was added (total volume 0.5 mL). If a thick slurry was again noted, an additional 0.25 mL of solvent was added (total volume 0.75 mL). After stirring for 2 days, the slurries were centrifuged, the supernatant was collected into preweighed vials, and the solvent evaporated at 50° C. (ambient pressure) without stirring. The vials containing the solid residues were dried in a vacuum oven at 50 C, 10^−2-10^−1 Torr, for 3 h before weighing again to determine the mass of solid that was dissolved in the supernatant (i.e. mg solid/mL solvent).
About 20 mg of compound was weighed into vials. Solvent was added in aliquots and stirred at the designated temperature until complete dissolution was observed. This measurement gave a solubility range.

[4] = Stability of crystalline forms at 40° C. and 75% relative humidity (XRPD, HPLC purity); details: for Change by XRPD after storage / Degradation by HPLC purity analysis after storage: 40° C., 75% relative humidity
Experimental: Approximately 10 mg of the Crystalline Pattern D of Compound I Maleate, 20 mg of the Crystalline Pattern C of Compound I Maleate, and 10 mg of the Crystalline Pattern E of Compound I Mandelate were weighed into open 4 mL vials that were placed into a 20 mL vial containing a saturated NaCl solution. The vial was sealed and kept at 40° C. for 7 days, creating an atmosphere at 75% relative humidity in the system. After 7 days, the materials were sampled and plated for XRPD analysis.
The stability test was repeated on Patterns C and D of Compound I Maleate for 11 days.

[5] = Solubility in simulated fluids and water; type: physicochemical; details: 37° C.
Experimental: Calibration samples for solubility in simulated fluids were prepared with freebase Compound I.
Solubility in simulated fluids were studied with the mandelate and maleate solids. The simulated fluids FaSSIF (fasted-state intestinal), FaSSGF (fasted-state gastric), and FeSSIF (fed-state intestinal) were removed from the refrigerator, warmed to room temperature, and the pH of each was measured. Between 1.9 and 2.0 mg of each salt was weighed into four vials and 1 mL of each fluid was added, including water. Stir bars (10 mm) were added to the vials and the vials were stirred at 37° C. After 30 mi (mandelate samples) or 1 h (maleate samples), the pH of each solution was measured, then 400 μL of each was removed and syringe filtered with 0.45 µm syringe filters. Approximately 300 μL of the recovered filtrate was diluted 5× with diluent and injected for HPLC analysis. The remainder of the samples in the vials were allowed to stir overnight. After 24 h stirring at 37° C., samples were filtered and diluted as before, and injected for analysis.

[6] = Form stability at ambient conditions for one week (XRPD); type: physicochemical; details: listed as Pattern C, maleate
Source text: Some of the samples generated in the antisolvent crystallization experiments were mixtures of Pattern B, Pattern C, and Pattern D. These samples were left at ambient conditions for one week, then analyzed again by XRPD.
Pure Pattern B was generated in the antisolvent crystallization with MIBK and heptane. […] The solids were scraped from the XRPD plate and used for simultaneous TGA/DSC analysis. […] After the solids required for the TGA/DSC analysis were transferred to the pan, the remainder of the solids were re-pressed to the XRPD sample plate and analyzed again.

CCOc1ccccc1-c1ccc(N2CCN(C(=O)C3(C(F)(F)F)CCC3)C[C@H]2CC)c(C(=O)N[C@@H]2CN3CCC2CC3)n1.O=C(O)/C=C\C(=O)O [Pattern C Maleate, N-[(3S)-1-azabicyclo[2.2.2]octan-3-yl]-6-(2-ethoxyphenyl)-3-[(2R)-2-ethyl-4-[1-(trifluoromethyl)-cyclobutanecarbonyl]piperazin-1-yl]pyridine-2-carboxamide maleate]
Stability after humidity exposure (XRPD, deliquescence) [1]: stable with no observed deliquescence | Hygroscopicity (in words) ([2]; DVS): moderately hygroscopic | Change by XRPD following the DVS analysis ([2]; after DVS from 2 to 95% RH): Slight changes | Reversible mass gain (DVS) ([2]; from 2 to 95% relative humidity): 9.18 wt. % | Behaviour at high humidity ([2]; high humidity): began to convert to amorphous | Solubility (in words) ([3]; MeOH, EtOH, acetone, THF, ACN, MEK, DMSO, and water containing systems at 8:2 vol. water:organic): freely soluble | solubility ([3]; aqueous with cosolvent or surfactant or cyclodextrin, ACN:water (2:8 vol.), RT): > 200 mg/mL | solubility ([3]; aqueous with cosolvent or surfactant or cyclodextrin, IPA:water (2:8 vol.), RT): > 200 mg/mL | solubility ([3]; aqueous with cosolvent or surfactant or cyclodextrin, acetone:water (2:8 vol.), RT): > 200 mg/mL | solubility ([3]; organic solvent or mixture, ACN, RT): > 200 mg/mL | solubility ([3]; organic solvent or mixture, DMSO, RT): > 200 mg/mL | solubility ([3]; organic solvent or mixture, EtOAc, 50° C.): 34 mg/mL | solubility ([3]; organic solvent or mixture, EtOAc, RT): 21 mg/mL | solubility ([3]; organic solvent or mixture, EtOH, RT): > 200 mg/mL | solubility ([3]; organic solvent or mixture, IPA, 50° C.): > 500 mg/mL | solubility ([3]; organic solvent or mixture, IPA, RT): > 200 mg/mL | solubility ([3]; organic solvent or mixture, IPA:MtBE (1:1 vol.), 50° C.): 36 to 43 mg/mL | solubility ([3]; organic solvent or mixture, IPA:heptane (1:1 vol.), 50° C.): 16 to 19 mg/mL | solubility ([3]; organic solvent or mixture, IPAc, 50° C.): 13 mg/mL | solubility ([3]; organic solvent or mixture, IPAc, RT): 8 mg/mL | solubility ([3]; organic solvent or mixture, MEK, RT): > 200 mg/mL | solubility ([3]; organic solvent or mixture, MIBK, 50° C.): 71 mg/mL | solubility ([3]; organic solvent or mixture, MIBK, RT): 49 mg/mL | solubility ([3]; organic solvent or mixture, MeOAc, 50° C.): > 500 mg/mL | solubility ([3]; organic solvent or mixture, MeOAc, RT): > 200 mg/mL | solubility ([3]; organic solvent or mixture, MeOAc:IPAc (1:1 vol.), 50° C.): 37 to 45 mg/mL | solubility ([3]; organic solvent or mixture, MeOH, RT): > 200 mg/mL | solubility ([3]; organic solvent or mixture, MtBE, 50° C.): 4 mg/mL | solubility ([3]; organic solvent or mixture, MtBE, RT): 4 mg/mL | solubility ([3]; organic solvent or mixture, THF, RT): > 200 mg/mL | solubility ([3]; organic solvent or mixture, acetone, RT): > 200 mg/mL | solubility ([3]; organic solvent or mixture, acetone:heptane (1:1 vol.), 50° C.): 31 to 37 mg/mL | solubility ([3]; organic solvent or mixture, chloroform, RT): > 200 mg/mL | solubility ([3]; organic solvent or mixture, cyclohexane, 50° C.): 3 mg/mL | solubility ([3]; organic solvent or mixture, cyclohexane, RT): < 3 mg/mL | solubility ([3]; organic solvent or mixture, n-heptane, 50° C.): 3 mg/mL | solubility ([3]; organic solvent or mixture, n-heptane, RT): < 3 mg/mL | solubility ([3]; organic solvent or mixture, toluene, 50° C.): 7 mg/mL | solubility ([3]; organic solvent or mixture, toluene, RT): < 3 mg/mL | Behaviour in solvent (in words) ([3]; water and 95:5 vol. water:organic systems): Gels/gums were generated | Change by XRPD after storage ([4]; 7 days): No visible change | Degradation by HPLC purity analysis after storage ([4]; 7 days): no degradation | Change by XRPD after storage ([4]; 11 days): No visible change | Degradation by HPLC purity analysis after storage ([4]; 11 days): no degradation | Stability on storage (in words) ([4]; over a week at 40° C. and 75% RH): stable | solubility at 1 h ([5]; FaSSGF (fasted-state simulated gastric fluid), pH 1.49, fassgf or other biorelevant, thermodynamic from solid, FaSSGF, 1 h): < 2.5 mg/mL | solubility at 24 h ([5]; FaSSGF (fasted-state simulated gastric fluid), pH 1.49, fassgf or other biorelevant, thermodynamic from solid, FaSSGF, 24 h): > 2.5 mg/mL | Sample pH ([5]; FaSSGF (initial pH 1.49), 1 h): 4.66 | Sample pH ([5]; FaSSGF (initial pH 1.49), 24 h): 5.08 | solubility at 24 h ([5]; FaSSIF (fasted-state simulated intestinal fluid), pH 6.35, thermodynamic from solid, FaSSIF, 24 h): 1.41 mg/mL | solubility at 1 h ([5]; FaSSIF (fasted-state simulated intestinal fluid), thermodynamic from solid, FaSSIF, 1 h): 1.24 mg/mL | Sample pH ([5]; FaSSIF (initial pH 6.35), 1 h): 6.23 | Sample pH ([5]; FaSSIF (initial pH 6.35), 24 h): 6.98 | Solids recovered from the solubility experiment (appearance, XRPD) ([5]; FaSSIF, after 24 h): oily and appeared as amorphous | solubility at 1 h ([5]; FeSSIF (fed-state simulated intestinal fluid), pH 4.83, thermodynamic from solid, FeSSIF, 1 h): > 2.5 mg/mL | solubility at 24 h ([5]; FeSSIF (fed-state simulated intestinal fluid), pH 4.83, thermodynamic from solid, FeSSIF, 24 h): > 2.5 mg/mL | Sample pH ([5]; FeSSIF (initial pH 4.83), 1 h): 1.50 | Sample pH ([5]; FeSSIF (initial pH 4.83), 24 h): 1.89 | solubility at 1 h ([5]; thermodynamic from solid, water, 1 h): > 2.5 mg/mL | solubility at 24 h ([5]; thermodynamic from solid, water, 24 h): > 2.5 mg/mL | Sample pH ([5]; water, 1 h): ~6.35 | Sample pH ([5]; water, 24 h): 5.50 | Form conversion by XRPD at ambient conditions [6]: no observable conversion
